Reference: patent US20100331297A1, “MODULATION OF PROTEIN TRAFFICKING” (FOLDRX PHARMACEUTICALS, INC., priority 2007, published 2010)

Biological target: ΔF508 CFTR (Homo sapiens, UniProt P13569, DEL508-508)
Test: Corrector activity, YFP halide (iodide) quenching assay in FRT cells expressing ΔF508 CFTR
Format: cell-based
Design: expressed in transfected cells; host or cells: Fischer rat thyroid (FRT) cells
Details: FRT cells ΔF508 CFTR/YFP, 24 hours with compound at 37° C., forskolin and genistein; read-out: Corrector EC50
Method: Fisher rat thyroid (FRT) cells stably expressing ΔF508 CFTR and a halide-sensitive variant of yellow fluorescent protein (YFP) were seeded into microtiter plates and allowed to grow for 24 hours at 37° C. and 5% CO2. See Pedemonte et al., J. Clin. Invest. […] Compounds in dimethylsulfoxide (DMSO) solution were pre-diluted into cell culture medium, the medium was removed from cells, and then fresh medium containing the compounds was applied. The cells were incubated for a further 24 hours at 37° C. and 5% CO2.
Activity of CFTR was assayed by removing the medium, washing the cell monolayer with phosphate-buffered saline solution (PBS), and then applying PBS containing forskolin and genistein. After 30 min incubation at 37° C., the plates were placed in a fluorescence plate reader equipped with a reagent injector.
Corrector activity was calculated as follows. Normalized endpoint fluorescence was calculated by dividing the endpoint fluorescence after iodide injection by the initial fluorescence reading and multiplication by 100. Corrector EC50 values were calculated from the activity vs. concentration data using a 4-parameter log fit. The bottom of the curve was constrained to zero activity (DMSO control) while the slope, EC50, and top of the curve were fitted to the data. The EC50 was determined as the concentration that corresponds to the inflection point of the fitted curve.

Sequence of ΔF508 CFTR (P13569 with tags, fused parts or gaps DEL508-508): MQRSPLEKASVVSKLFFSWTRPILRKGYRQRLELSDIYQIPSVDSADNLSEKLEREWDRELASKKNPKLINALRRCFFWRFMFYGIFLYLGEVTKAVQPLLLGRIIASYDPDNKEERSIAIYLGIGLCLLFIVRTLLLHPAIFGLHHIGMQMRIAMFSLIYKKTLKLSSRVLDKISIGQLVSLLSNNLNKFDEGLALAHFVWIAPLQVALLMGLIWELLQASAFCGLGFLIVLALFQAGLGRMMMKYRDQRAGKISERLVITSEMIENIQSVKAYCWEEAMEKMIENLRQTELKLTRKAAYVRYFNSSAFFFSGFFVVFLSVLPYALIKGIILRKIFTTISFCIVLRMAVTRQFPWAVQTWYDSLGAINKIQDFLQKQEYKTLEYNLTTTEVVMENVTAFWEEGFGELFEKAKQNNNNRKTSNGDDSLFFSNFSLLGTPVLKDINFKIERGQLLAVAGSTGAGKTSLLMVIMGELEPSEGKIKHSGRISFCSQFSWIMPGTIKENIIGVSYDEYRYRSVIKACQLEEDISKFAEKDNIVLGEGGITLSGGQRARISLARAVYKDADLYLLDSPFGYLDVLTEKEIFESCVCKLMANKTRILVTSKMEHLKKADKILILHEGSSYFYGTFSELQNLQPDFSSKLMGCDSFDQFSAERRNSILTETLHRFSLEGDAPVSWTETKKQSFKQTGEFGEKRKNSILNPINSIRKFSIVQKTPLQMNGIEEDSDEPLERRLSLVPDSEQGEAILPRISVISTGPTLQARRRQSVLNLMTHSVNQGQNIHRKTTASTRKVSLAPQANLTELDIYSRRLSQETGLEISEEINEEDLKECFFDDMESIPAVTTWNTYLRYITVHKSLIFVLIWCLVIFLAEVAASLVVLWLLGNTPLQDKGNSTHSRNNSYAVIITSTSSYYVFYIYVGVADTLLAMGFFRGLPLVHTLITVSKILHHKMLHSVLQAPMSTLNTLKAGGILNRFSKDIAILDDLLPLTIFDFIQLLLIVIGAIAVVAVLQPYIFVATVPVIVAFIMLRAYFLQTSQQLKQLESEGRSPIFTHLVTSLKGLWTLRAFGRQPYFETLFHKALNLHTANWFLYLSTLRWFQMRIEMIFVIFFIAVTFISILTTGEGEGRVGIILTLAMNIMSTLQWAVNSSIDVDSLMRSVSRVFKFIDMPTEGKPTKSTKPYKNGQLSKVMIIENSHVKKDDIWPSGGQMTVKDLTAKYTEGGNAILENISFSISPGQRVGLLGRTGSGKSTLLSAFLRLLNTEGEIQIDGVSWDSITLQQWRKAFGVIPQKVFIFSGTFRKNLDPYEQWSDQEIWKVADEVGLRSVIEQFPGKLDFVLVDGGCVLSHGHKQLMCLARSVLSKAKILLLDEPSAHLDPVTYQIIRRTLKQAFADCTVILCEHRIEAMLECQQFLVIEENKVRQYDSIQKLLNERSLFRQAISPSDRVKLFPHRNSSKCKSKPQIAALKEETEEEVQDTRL

SMILES | EC50 [µM]
CCNC(=O)n1nc(-c2ccc(Cl)cc2)c2c(N)ncnc21 [Compound No. 213, 4-Amino-3-(4-chloro-phenyl)-pyrazolo[3,4-d]pyrimidine-1-carboxylic acid ethylamide] | 5 to 10
CCn1nc(Nc2ccccc2)c2c(N)ncnc21 [Compound No. 223, 1-Ethyl-N^3-phenyl-1H-pyrazolo[3,4-d]pyrimidine-3,4-diamine] | > 15
CC(C)(C)n1nc(-c2ccc(Cl)cc2)c2c(NC(=O)Nc3ccccc3)ncnc21 [Compound No. 230, 1-[1-tert-Butyl-3-(4-chloro-phenyl)-1H-pyrazolo[3,4-d]pyrimidin-4-yl]-3-phenyl-urea] | > 15
Nc1ncnc2c1c(Nc1ccccc1)nn2C1CCC1 [Compound No. 253, 1-Cyclobutyl-N^3-phenyl-1H-pyrazolo[3,4-d]pyrimidine-3,4-diamine] | > 15
CC(=O)N(C)c1ncnc2c1c(-c1ccc(Cl)cc1)nn2C(C)(C)C [Compound No. 259, N-[1-tert-Butyl-3-(4-chloro-phenyl)-1H-pyrazolo[3,4-d]pyrimidin-4-yl]-N-methyl-acetamide] | > 15
CC(C)(C)n1nc(-c2nc3ccccc3o2)c2c(N)ncnc21 [Compound No. 355, 3-Benzooxazol-2-yl-1-tert-butyl-1H-pyrazolo[3,4-d]pyrimidin-4-ylamine] | 2 to 5
CC(C)(C)n1ncc2c(NC(=O)c3ccccc3)ncnc21 [Compound No. 388, N-(1-tert-Butyl-1H-pyrazolo[3,4-d]pyrimidin-4-yl)-benzamide] | > 15
CC(C)(C)n1nc(-c2ccc(Cl)cc2)c2c(NC(=O)C(=O)c3ccccc3)ncnc21 [Compound No. 395, N-[1-tert-Butyl-3-(4-chloro-phenyl)-1H-pyrazolo[3,4-d]pyrimidin-4-yl]-2-oxo-2-phenyl-acetamide] | 5 to 10
CNC(=S)Nc1ncnc2c1c(-c1ccc(Cl)cc1)nn2C(C)(C)C [Compound No. 397, 1-[1-tert-Butyl-3-(4-chloro-phenyl)-1H-pyrazolo[3,4-d]pyrimidin-4-yl]-3-methyl-thiourea] | > 15
CC(=O)c1ccc(-c2nn(C(C)(C)C)c3ncnc(N)c23)cc1 [compound 125] | > 15
CC(C)(C)n1nc(-c2ccc(O)c3ccccc23)c2c(N)ncnc21 [compound 164] | > 15
COCCn1nc(-c2ccc(Cl)cc2)c2c(N)ncnc21 [compound 171] | > 15
CC(=O)n1nc(-c2ccc(Cl)cc2)c2c(N)ncnc21 [compound 181, 1-[4-Amino-3-(4-chloro-phenyl)-pyrazolo[3,4-d]pyrimidin-1-yl]-ethanone] | > 15
Nc1ncnc2c1c(-c1ccc(Cl)cc1)nn2C(=O)C1CC1 [compound 182] | 5 to 10
COC(=O)n1nc(-c2ccc(Cl)cc2)c2c(N)ncnc21 [compound 186, 4-Amino-3-(4-chloro-phenyl)-pyrazolo[3,4-d]pyrimidine-1-carboxylic acid methyl ester] | > 15
CC(C)(C)C1N=C(c2ccc(Cl)cc2)c2c(NC(=O)C3CCC3)ncnc21 (stereo not shown) [compound 192] | 2 to 5
CS(=O)(=O)n1nc(-c2ccc(Cl)cc2)c2c(N)ncnc21 [compound 203, 3-(4-Chloro-phenyl)-1-methanesulfonyl-1H-pyrazolo[3,4-d]pyrimidin-4-ylamine] | > 15
CCn1cc(-c2ccc(Cl)cc2)c2c(N(C(C)=O)C(C)=O)ncnc21 [compound 211, N-Acetyl-N-[5-(4-chloro-phenyl)-7-ethyl-7H-pyrrolo[2,3-d]pyrimidin-4-yl]-acetamide] | 2 to 5
Nc1ncnc2c1c(-c1ccc(Cl)cc1)nn2C(=O)Nc1ccccc1 [compound 214] | > 15

SMILES | EC50 [µM]
CCn1nc(Sc2cccc(F)c2)c2c(N)ncnc21 [compound 219] | 2 to 5
CCn1nc([S+]([O-])c2ccccc2C)c2c(N)ncnc21 (stereo not shown) [compound 222] | > 15
CC(C)(C)n1nc(-c2ccc(Cl)cc2)c2c(Nc3ncccn3)ncnc21 [compound 235] | > 15
CCNC(=O)Nc1ncnc2c1c(-c1ccc(Cl)cc1)nn2C(C)(C)C [compound 239] | > 15
Nc1ncnc2c1c(-c1ccc(Cl)cc1)nn2CCc1ccccc1 [compound 243] | > 15
CCn1nc(Sc2ccncc2)c2c(N)ncnc21 [compound 249] | > 15
CCn1nc([S+]([O-])c2ccc(F)cc2)c2c(N)ncnc21 (stereo not shown) [compound 254] | > 15
CCn1nc(Sc2ccc(C)cc2)c2c(N)ncnc21 [compound 255] | > 15
CCn1nc(Sc2ccc(F)cc2F)c2c(N)ncnc21 [compound 258] | > 15
CCn1nc(Oc2cccc(Cl)c2)c2c(N)ncnc21 [compound 260] | > 15
CC(C)(C)n1nc(Oc2cccc(Cl)c2)c2c(NC(=O)C3CCCC3)ncnc21 [compound 338] | 5 to 10
CCC(=O)Nc1ncnc2c1c(Oc1cccc(Cl)c1)nn2C(C)(C)C [compound 339] | 5 to 10
CC(C)(C)OC(=O)N1CC(n2nc(Oc3cccc(Cl)c3)c3c(N)ncnc32)C1 [compound 357] | > 15
Nc1ncnc2c1c(Oc1cccc(Cl)c1)nn2C1CCOC1 (stereo not shown) [compound 358] | > 15
CN1CCC(C(=O)Nc2ncnc3c2c(-c2ccc(Cl)cc2)nn3C(C)(C)C)C1 (stereo not shown) [compound 363] | > 15
CCn1c(C)c(-c2ccc(Cl)cc2)c2c(NC(=O)C(C)C)ncnc21 [compound 364] | < 2
CC(C)C(=O)Nc1ncnc2c1c(-c1ccc(Cl)cc1)cn2C(C)(C)C [compound 366] | > 15
CCC(=O)Nc1ncnc2c1c(-c1cccc(Cl)c1)cn2C(C)(C)C [compound 368] | 5 to 10

Results, then the molecule that gave them:

EC50 [µM] | SMILES
> 15 | Nc1ncnc2c1c(Oc1cccc(Cl)c1)nn2C1CCCC1 [Compound No. 221, 3-(3-Chloro-phenoxy)-1-cyclopentyl-1H-pyrazolo[3,4-d]pyrimidin-4-ylamine]
> 15 | Cc1ccc(-c2nn(-c3ncccn3)c3ncnc(N)c23)cc1 [Compound No. 229, 1-Pyrimidin-2-yl-3-p-tolyl-1H-pyrazolo[3,4-d]pyrimidin-4-ylamine]
> 15 | CN(C)/C=N/c1ncnc2c1c(-c1ccc(Cl)cc1)nn2C(C)(C)C [Compound No. 232, N′-[1-tert-Butyl-3-(4-chloro-phenyl)-1H-pyrazolo[3,4-d]pyrimidin-4-yl]-N,N-dimethyl-formamidine]
> 15 | Cc1ccc(-c2nn(C(C)(C)C)c3ncnc(Nc4ncccn4)c23)cc1 [Compound No. 234, (1-tert-Butyl-3-p-tolyl-1H-pyrazolo[3,4-d]pyrimidin-4-yl)-pyrimidin-2-yl-amine]
> 15 | CCn1nc(N(C)c2ccccc2)c2c(N)ncnc21 [Compound No. 248, 1-Ethyl-N^3-methyl-N^3-phenyl-1H-pyrazolo[3,4-d]pyrimidine-3,4-diamine]
> 15 | CCC(C)Cn1nc(-c2ccc(Cl)cc2)c2c(N)ncnc21 (stereo not shown) [compound 101]
> 15 | CC(=O)N(C(C)=O)c1ncnc2c1c(-c1ccc(F)cc1)nn2C(C)(C)C [compound 117, N-Acetyl-N-[1-tert-butyl-3-(4-fluoro-phenyl)-1H-pyrazolo[3,4-d]pyrimidin-4-yl]-acetamide]
5 to 10 | CC(C)(C)n1nc(-c2ccc3ccccc3c2)c2c(N)ncnc21 [compound 129]
> 15 | Nc1ncnc2c1c(-c1ccc(Cl)cc1)nn2C(=O)NCc1ccccc1 [compound 215]
> 15 | CC(C)(C)n1nc(-c2ccc(Cl)cc2)c2c(NC(=O)NCc3ccccc3)ncnc21 [compound 231]
> 15 | CCn1nc(Sc2cccc(O)c2)c2c(N)ncnc21 [compound 250]
> 15 | Nc1ncnc2c1c(-c1ccc(Cl)cc1)nn2-c1ncccn1 [compound 251]
< 2 | CC(C)C(=O)Nc1ncnc2c1c(-c1ccc(Cl)cc1)cn2C(C)(C)C [compound 337]
> 15 | CCn1nc([S+]([O-])c2cccc(C(F)(F)F)c2)c2c(N)ncnc21 (stereo not shown) [compound 340]
> 15 | CCNC(=O)N1CC(n2nc(Sc3ccccc3)c3c(N)ncnc32)C1 [compound 348]
> 15 | CC(C)(C)n1cc(-c2cccc(Cl)c2)c2c(N)ncnc21 [compound 354]
> 15 | Nc1ncnc2c1c(Oc1ccccc1)nn2C1CCOC1 (stereo not shown) [compound 359]
> 15 | CC(C)N1CC(n2nc(Sc3cccc(Cl)c3)c3c(N)ncnc32)C1 [compound 360]
> 15 | CC1CCC(n2nc(-c3ccc(Cl)cc3)c3c(N)ncnc32)CC1 (stereo not shown) [compound 361]
> 15 | CC(C)(C)OC(=O)N1CCC(n2nc(Oc3ccccc3)c3c(N)ncnc32)CC1 [compound 362]
2 to 5 | CCn1c(C)c(-c2ccc(Cl)cc2)c2c(NC(=O)C3CCCC3)ncnc21 [compound 365]
5 to 10 | CC(C)(C)n1cc(-c2cccc(Cl)c2)c2c(NC(=O)C3CCCC3)ncnc21 [compound 367]
2 to 5 | CC(C)C(=O)Nc1ncnc2c1c(Oc1cccc(Cl)c1)nn2C(C)(C)C [compound 369]
> 15 | CC(C)(C)n1nc(Oc2nccc3ccccc23)c2c(N)ncnc21 [compound 370, 1-tert-Butyl-3-(isoquinolin-1-yloxy)-1H-pyrazolo[3,4-d]pyrimidin-4-ylamine]
